# Assay results taken from patent US20240307373A1, “METHODS OF USE AND COMPOSITIONS OF BISBENZYLISOQUINOLINES FOR THE TREATMENT OF MALIGNANCIES” (priority 2023, published 2024).
# Several values for one entry are separate records, joined by “and”; a condition that tells them apart may be missing. Equal values may be shown once.
# Experiments:
# calmodulin (CaM) = calmodulin (CaM) (Homo sapiens, UniProt P0DP23); conditions: Ma 2013; cited from earlier work
# P-glycoprotein (P-gp) = P-glycoprotein (P-gp) (Homo sapiens, UniProt P08183); conditions: cited from earlier work
# Sequence of P-glycoprotein (P-gp) (P08183 whole entry): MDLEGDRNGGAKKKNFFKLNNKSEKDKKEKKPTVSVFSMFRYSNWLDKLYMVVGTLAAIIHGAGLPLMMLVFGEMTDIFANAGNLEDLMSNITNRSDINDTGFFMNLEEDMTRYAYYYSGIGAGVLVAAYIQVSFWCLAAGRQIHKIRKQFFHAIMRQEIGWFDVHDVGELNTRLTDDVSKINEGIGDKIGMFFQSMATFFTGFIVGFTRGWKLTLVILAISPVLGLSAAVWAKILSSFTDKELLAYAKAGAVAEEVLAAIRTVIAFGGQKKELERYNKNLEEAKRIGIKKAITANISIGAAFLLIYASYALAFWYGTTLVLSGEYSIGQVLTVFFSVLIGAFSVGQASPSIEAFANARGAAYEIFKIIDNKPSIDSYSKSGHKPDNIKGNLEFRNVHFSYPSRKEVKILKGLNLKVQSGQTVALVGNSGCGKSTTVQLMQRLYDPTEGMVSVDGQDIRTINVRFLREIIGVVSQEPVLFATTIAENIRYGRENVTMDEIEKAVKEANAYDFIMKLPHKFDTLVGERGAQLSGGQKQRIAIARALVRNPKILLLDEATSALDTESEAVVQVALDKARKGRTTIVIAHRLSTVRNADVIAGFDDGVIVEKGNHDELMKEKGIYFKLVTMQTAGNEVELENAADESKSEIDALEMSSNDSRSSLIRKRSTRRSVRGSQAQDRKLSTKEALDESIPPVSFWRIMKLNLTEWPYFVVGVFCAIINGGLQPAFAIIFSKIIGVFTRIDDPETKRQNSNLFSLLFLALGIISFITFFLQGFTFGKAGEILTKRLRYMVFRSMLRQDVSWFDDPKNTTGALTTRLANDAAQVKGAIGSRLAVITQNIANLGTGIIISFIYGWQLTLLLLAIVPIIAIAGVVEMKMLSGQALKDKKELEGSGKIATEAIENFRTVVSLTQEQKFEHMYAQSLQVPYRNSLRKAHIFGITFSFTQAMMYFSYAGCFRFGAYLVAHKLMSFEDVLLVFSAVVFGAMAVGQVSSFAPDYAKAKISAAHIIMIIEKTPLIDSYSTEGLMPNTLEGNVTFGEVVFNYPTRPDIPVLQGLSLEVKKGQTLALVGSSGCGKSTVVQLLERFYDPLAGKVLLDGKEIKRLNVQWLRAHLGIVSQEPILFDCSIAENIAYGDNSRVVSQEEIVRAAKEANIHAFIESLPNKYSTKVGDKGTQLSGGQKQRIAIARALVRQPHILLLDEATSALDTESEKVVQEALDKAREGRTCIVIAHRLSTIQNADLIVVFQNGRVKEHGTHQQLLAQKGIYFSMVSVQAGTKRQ
# CAMKII gamma = target: T1, CAMKII gamma (Homo sapiens, UniProt Q13555); test: CAMKII gamma kinase activity (ADP Glo); format: biochemical
# T1 construct: purchased Promega V3531
# T1 sequence (Q13555 whole entry): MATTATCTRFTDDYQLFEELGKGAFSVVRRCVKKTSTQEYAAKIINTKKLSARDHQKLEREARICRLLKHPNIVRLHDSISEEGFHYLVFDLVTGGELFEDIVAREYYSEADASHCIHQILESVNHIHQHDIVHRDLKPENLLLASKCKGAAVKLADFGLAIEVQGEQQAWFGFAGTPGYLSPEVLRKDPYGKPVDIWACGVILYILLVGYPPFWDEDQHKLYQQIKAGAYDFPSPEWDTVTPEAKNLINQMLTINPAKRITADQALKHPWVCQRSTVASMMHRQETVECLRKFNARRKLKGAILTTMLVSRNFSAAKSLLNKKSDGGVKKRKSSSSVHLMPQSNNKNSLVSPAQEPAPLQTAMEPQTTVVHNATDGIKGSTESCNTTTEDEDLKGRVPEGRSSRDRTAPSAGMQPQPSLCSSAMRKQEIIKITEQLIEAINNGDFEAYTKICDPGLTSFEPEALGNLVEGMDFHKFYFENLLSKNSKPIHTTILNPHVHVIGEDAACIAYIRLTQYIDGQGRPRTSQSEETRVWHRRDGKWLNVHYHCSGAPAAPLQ
# Protocol: An enzymatic study was conducted to evaluate the inhibition of CAMKII gamma by ES-3000 (Tetrandrine). CAMKII gamma kinase activity was measured using […] purchased from Promega following the Promega protocol. CAMKII enzyme system purchased from Promega (V3531). ADP Glo was used for detection. Assay optimized for linearity of protein and time. Conditions for inhibitor screening 25 ng CAMKII, 20 min. incubations, inhibitor or DMSO (5%) at RT in 20 uL total volume. Inhibitors, ATP (10 or 50 uM), substrates and buffer added to tubes and reactions started with enzyme. […] Reactions terminated at 20 min. by adding ADP Glo reaction following manufactures instructions. All reactions were done in duplicate. Calculations of percent (%) inhibition determined by dividing the mean activity at each condition by the mean of the DMSO control times 100.
# [1] = test system: human CML bone marrow-derived cells; test: Replating assay (secondary clonal growth of plucked CFU-GM colonies); format: cell-based
# Protocol: Following enumeration of the erythroid and myeloid progenitors, individual CFU-GM colonies were plucked from the matrix and diluted in 20 μL of IMDM+10% FBS. The colony was dispersed in this medium by gentle pipetting. This cellular mixture was then added to a well of a 96 well plate containing 180 μL of the ColonyGel medium described above. […] Both the number of wells which supported clonal growth as well as colony number per well were recorded.
# β-catenin = β-catenin level in K562 cell extracts by western blot; format: cell-based, human
# Protocol: Levels of β-catenin and β-actin proteins in untreated and tetrandrine-treated K562 cell lines by Western blot.
# Antibodies for Western Blot analysis against β-catenin and β-actin were purchased from Santa Cruz Biotechnology (Santa Cruz, CA) Protein lysates were prepared by lysing cells in RIPA buffer and immunoprecipitation.
# Briefly, the method to quantitate β-catenin protein by western blot was as follows: Extracts of K562 cells (untreated and treated with various concentrations of tetrandrine) were concentrated to 0.4 ml using Centricon-3 column to yield a protein concentration of approximately 2 mg/ml. Samples were mixed with 5X Laemmli buffer and loaded on 8-16% Tris-Glycine gradient gel, then polyacrylamide gel electrophoresis (PAGE) was run at 85 volts for 100 minutes at 6° C. and proteins were transferred on PVDF membrane at 70 Volts for 85 minutes at 8° C. Membrane was blocked with 5% milk in Tris-buffered Saline containing 0.1% TW-20 (TBST). Membrane was incubated with primary antibody for 18 hours at 4° C. followed by 3 washes, 5 minutes each, with TBST and incubated with secondary antibody in TBST for 2 hours at 25° C. […] Protein bands in WB images were quantitated using Molecular Imaging software pack MIS-4.0 software and tabulated in Excel spreadsheet.
# bcr-abl transcripts = test: qPCR assay for bcr-abl and abl transcripts in primary and secondary colonies; format: cell-based, human; conditions: 10 μM, number of colonies
# Protocol: After 14-16 days in culture, individual colonies were plucked from the solvent control and tetrandrine at 10 μM test condition into 75 μL of buffer RLT (Qiagen). Secondary replated colonies were collected and washed with 2 mL of 1× PBS, frozen at −80° C. and then lysed with 75 μL of buffer RLT (Qiagen). RNA was isolated using the Rneasy Micro kit according to the manufacture's instructions. Because the cell numbers in each colony were low, 20 ng of carrier RNA was included in each reaction to promote a better RNA yield. After elution, the entire isolation was subjected to a cDNA conversion using the high-capacity cDNA conversion kit (Life Technologies).
# Using cDNA derived from both primary and secondary replated colonies, qPCR assay was used to determine whether colonies were positive for ber-abl transcripts. Primers and probes were designed based on the publication from Luthra, et.al. and are designed to anneal to ber-abl (target) and abl (endogenous control) cDNA. Each target was assayed in duplicated in a 20 μL reaction volume. Samples were denatured at 95° C. for 10 min and then amplified for 40 rounds of 95° C. for 15 s and 60° C. for 60 s.
# To determine whether a colony was normal (bcr-abl negative and abl positive) or diseased (bcr-abl and abl positive), a TaqMan®-based qPCR test was used. In order to score the colonies positive or negative, the following scoring strategy was performed. All colonies were assayed in duplicate for each target. If a singleton reaction yielded a Ct then the reaction scored a 1. If no Ct was recorded, a score of 0 was given. From here, we used a logic test to score the colonies into four different categories: bcr-abl and abl, abl only, bcr-abl only or both negative. In order to be placed in a category, a colony must score a 1 in both reactions. However, if a colony only scored a 1 for one out of the two reactions, this colony was removed from the analysis. If a colony scored a 1 for each reaction (both bcr-abl and abl) the colony was placed into the ber-abl and abl category, signifying it as a diseased colony. Alternatively, if a colony scored a 1 in only both of the bcr-abl reactions or a 1 in only both the abl reactions, the colony was placed in the bcr-abl only or abl only category, respectively. If the colony scored a 0 for both targets (bcr-abl and abl) then the colony was placed in the both negative category.
# [2] = test system: human CML bone marrow-derived cells; test: Colony forming cell (CFC) assay on CML patient bone marrow cells; conditions: colony number, methylcellulose-based medium, 14-16 days
# Protocol: Clonogenic progenitors were set up using buman CML bone marrow-derived cells in the methylcellulose-based media formulation described above. Test articles were added to the medium to give final concentrations as described above. Standard cultures containing IMDM+10% FBS as well as solvent control cultures containing DMSO were also initiated. Following addition of the test compounds and cells, the tubes were vortexed to ensure equal distribution of compound and cells throughout the matrix. The cultures were set up in triplicate at 0.1×10^6 cells per culture (lot #BBM1000-E1110025705111110G4) for each control and each compound concentration. The cultures were placed in a humidified incubator (37° C., 5% CO2). Following 14-16 days in culture, the colonies were assessed and scored by trained personnel.
# Human bone marrow light-density cells derived from CML patient bone marrow (Conversant Bio, Alabama), were stored in the gaseous phase of liquid nitrogen until required. On the day of the experiment, the cells were thawed rapidly, the contents of the vial were diluted in 10 mL of Iscove's Modified Dulbecco's Medium containing 10% fetal bovine serum (IMDM+10% FBS) and washed by centrifugation (approximately 1200 r.p.m. for 10 minutes, room temperature). The supernatant was discarded, and the cell pellets were resuspended in a known volume of IMDM+10% FBS. A cell count (3% glacial acetic acid) and viability assessment (trypan blue exclusion test) […] Tetrandrine (10 μM) for 14 days. After treatment, primary and secondary colonies were grown and analyzed by qPCR to determine BCR-ABL or ABL only cells.
# Human erythroid (CFU-E and BFU-E) and myeloid (CFU-GM) colony enumeration were performed by trained personnel. In addition, the distribution of colony types as well as general colony and cellular morphology were analyzed. […] For statistical analysis, colony numbers in compound-treated cultures were compared to the solvent control cultures.
# [3] = test system: human breast, colon carcinoma, and hepatoma cell lines; conditions: read-out: IC50 range; cited from earlier work
# HCT116 cells = conditions: cited from earlier work
# [4] = test system: leukemic cells and leukemic stem cells; test: BCR-ABL induced CML mouse model (bone marrow transplantation); format: in vivo, C57BL/6 mice
# Excerpt: The method is as follows: 20 C57BL/6 mice were used as donors for bone marrow transduction. They were primed by intravenous injection with 5-fluorouracil four days before collecting cells. Bone marrow cells were harvested from femurs and tibias. Bone marrow cells were infected with a retrovirus containing MSCV-BCR-ABL-IRES-GFP twice 60 recipient mice were lethally irradiated by two doses of 550cGy before bone marrow transplantation by intravenous injection with 500,000 cells/mouse.
# In an in vivo model, the effectiveness of Tetrandrine was tested on CML stem cells. The objective of the study was to determine the survival of leukemic cells and leukemic stem cells in response to the treatment with Tetrandrine. After priming donor C57BL/6 (B6) mice with intravenous injections of 5-fluorouracil for four days, bone marrow cells were harvested from femurs and tibia, then transfected twice with retrovirus containing MSCV-BCR-ABL-IRES-GFP. Recipient mice were lethally irradiated by two doses of 550 cGy before bone marrow transplantation by intravenous injection with 5×10^5 cells/mouse. Blood from recipient mice was tested for disease induction one week after transduction by FACS analysis for GFP (FIG. 7A). […] Treatments started on day 8 after bone marrow transplantation (FIG. 7B).
# hERG = hERG (Homo sapiens, UniProt Q12809); test: hERG inhibition, IonWorks HT electrophysiology in CHO cells stably transfected with hERG
# Sequence of hERG (Q12809 whole entry): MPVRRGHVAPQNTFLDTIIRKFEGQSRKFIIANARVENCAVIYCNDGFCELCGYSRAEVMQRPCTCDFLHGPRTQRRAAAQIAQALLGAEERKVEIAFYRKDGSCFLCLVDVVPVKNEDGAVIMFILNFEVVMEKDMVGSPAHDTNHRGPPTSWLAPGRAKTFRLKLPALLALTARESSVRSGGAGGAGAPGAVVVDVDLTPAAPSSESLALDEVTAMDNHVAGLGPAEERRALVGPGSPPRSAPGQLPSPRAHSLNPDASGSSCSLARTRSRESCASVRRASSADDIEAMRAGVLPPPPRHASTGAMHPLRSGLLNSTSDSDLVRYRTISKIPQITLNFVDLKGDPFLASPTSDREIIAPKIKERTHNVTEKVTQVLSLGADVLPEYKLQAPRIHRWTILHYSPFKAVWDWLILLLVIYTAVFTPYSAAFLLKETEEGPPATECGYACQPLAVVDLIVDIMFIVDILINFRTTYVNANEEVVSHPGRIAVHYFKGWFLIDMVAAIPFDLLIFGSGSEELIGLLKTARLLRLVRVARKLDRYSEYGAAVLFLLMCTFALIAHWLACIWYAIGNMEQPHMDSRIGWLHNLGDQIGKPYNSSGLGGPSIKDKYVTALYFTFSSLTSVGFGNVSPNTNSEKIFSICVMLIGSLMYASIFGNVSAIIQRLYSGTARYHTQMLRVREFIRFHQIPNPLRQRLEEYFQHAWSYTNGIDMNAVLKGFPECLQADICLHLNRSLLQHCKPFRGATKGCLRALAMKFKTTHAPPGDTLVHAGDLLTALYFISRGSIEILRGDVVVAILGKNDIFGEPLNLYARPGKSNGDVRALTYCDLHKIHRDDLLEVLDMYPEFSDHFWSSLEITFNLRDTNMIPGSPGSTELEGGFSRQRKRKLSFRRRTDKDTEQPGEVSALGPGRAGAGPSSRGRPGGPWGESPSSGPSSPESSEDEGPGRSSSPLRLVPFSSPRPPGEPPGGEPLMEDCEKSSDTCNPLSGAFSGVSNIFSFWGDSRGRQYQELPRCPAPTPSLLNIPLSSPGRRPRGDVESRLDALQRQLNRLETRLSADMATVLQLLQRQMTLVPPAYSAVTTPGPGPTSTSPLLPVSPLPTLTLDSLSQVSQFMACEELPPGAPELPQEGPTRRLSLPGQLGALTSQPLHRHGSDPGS
# [5] = Tetrandrine 150 mg/kg orally 1×/day versus Imatinib 100 mg/kg 2×/day, treatment from day 8 after bone marrow transplantation
substance,measurement,setting,value
"6,6′,7,12-tetramethoxy-2,2′-dimethyl-berbaman [ES-3000]",binding to calmodulin (CaM),calmodulin (CaM),bind competitively to calmodulin
same,P-gp substrate,P-glycoprotein (P-gp); Susa 2010,not a substrate of P-gp
same,reversal of P-glycoprotein-mediated drug resistance,P-glycoprotein (P-gp),potent and specific activity
same,mean (units),"CAMKII gamma; 30 uM inhibitor, 10 uM ATP",3.09 units
same,units (duplicate reactions),"CAMKII gamma; 30 uM inhibitor, 10 uM ATP",2.75 units and 3.43 units
same,mean (units),"CAMKII gamma; 30 uM inhibitor, 50 uM ATP",10.55 units
same,units (duplicate reactions),"CAMKII gamma; 30 uM inhibitor, 50 uM ATP",10.4 units and 10.7 units
same,mean (units),"CAMKII gamma; 100 uM inhibitor, 10 uM ATP",2.87 units
same,units (duplicate reactions),"CAMKII gamma; 100 uM inhibitor, 10 uM ATP",2.5 units and 3.24 units
same,mean (units),"CAMKII gamma; 100 uM inhibitor, 50 uM ATP",7.955 units
same,units (duplicate reactions),"CAMKII gamma; 100 uM inhibitor, 50 uM ATP",8.81 units and 7.1 units
same,mean (units),"CAMKII gamma; 250 uM inhibitor, 10 uM ATP",0.41 units
same,units (duplicate reactions),"CAMKII gamma; 250 uM inhibitor, 10 uM ATP",0.34 units and 0.48 units
same,Repeating Colony Count (secondary colonies per well),"[1]; colonies plucked from original cultures with ES-3000 @ 10 μM, 96 well plate, 14 days",1
same,average CFC per well,[1]; original cultures with ES-3000 @ 10 μM,three
same,β-catenin band,β-catenin; K562 cells treated with 20 and 40 uM,absent
same,β-catenin level,"β-catenin; K562 cells, 0 to 40 uM, 24 hours, western blot",lowers the β-catenin level in K562 cells in a dose dependent manner
same,abl only,bcr-abl transcripts; Primary colonies,1
same,bcr-abl only,bcr-abl transcripts; Primary colonies,1
same,both negative,bcr-abl transcripts; Primary colonies,4
same,abl only,bcr-abl transcripts; Secondary colonies,1
same,bcr-abl only,bcr-abl transcripts; Secondary colonies,0
same,both negative,bcr-abl transcripts; Secondary colonies,9
same,BFU-E,[2]; 0.1 μM,22 ± 4
same,CFU-E,[2]; 0.1 μM,11 ± 1
same,CFU-GM,[2]; 0.1 μM,55 ± 5
same,Total Erythroid,[2]; 0.1 μM,33 ± 3
same,BFU-E,[2]; 1 μM,22 ± 4
same,CFU-E,[2]; 1 μM,10 ± 2
same,CFU-GM,[2]; 1 μM,54 ± 2
same,Total Erythroid,[2]; 1 μM,33 ± 3
same,BFU-E,[2]; 3 μM,14 ± 3
same,CFU-E,[2]; 3 μM,9 ± 2
same,CFU-GM,[2]; 3 μM,52 ± 5
same,Total Erythroid,[2]; 3 μM,23 ± 2
same,CFU-GM,[2]; 10 μM,26 ± 2
same,IC50,[3],1.5 to 10.4 µM
same,anticancer activity in combination with 5-FU,HCT116 cells; HCT116 (He 2011),synergistic anticancer activity with 5-FU
same,migration and invasion capabilities,HCT116 cells; HCT116 cells (He 2011),reduced migration and invasion capabilities
same,spleen weight,"[4]; Tetrandrine 150 mg/kg in 0.1N HCl, 1 time per day",reduces spleen weight
same,development of circulating leukemic cells,[4]; [5],superior to Imatinib
same,development of leukemic stem cells,[4]; [5],superior to Imatinib
same,plasma levels at which QT prolongation might be expected,"hERG; subjects, interpretation of hERG IC50",above 249 ng/ml
same,safety for cardiac conduction-related toxicity (hERG IC50 versus Cmax),"hERG; utilizing Cmax from previous human clinical experience (Oldham 1998, Oldham 2000)",13 fold
